The text below walks through data of ChEMBL document CHEMBL1201862, “PubChem BioAssay data set” (2004).

The structures appear in SMILES notation.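 Results reflect a 48-hour exposure of cells in 96-well plates to compound at five concentrations. GI50 marks 50% less growth.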 Activity calls are given as the source filed them. Cut-off read from the data, not from the text of the source: active = GI50 up to about 1.1 µM and inactive = higher.

Among the test systems are HCT-116; HCT-15; HOP-62; HOP-92; K562; LOX IMVI; M14; MOLT-4; Malme-3M; NCI-H460; OVCAR-3; OVCAR-5; RPMI-8226; RXF 393; SK-MEL-2; SK-OV-3; SN12C; SNB-19; SNB-75; U-251.
Test in all cases: NCI anticancer screen, dose series, 48 h

Take `O=C(c1ccccc1)c1ccc2nc3n(c2c1)C(c1c(Cl)cccc1Cl)SC3` (stereo not given): the GI50 was 3.26 µM (inactive) with HCT-116; 3.35 µM in the test on HCT-15; 6.37 µM (inactive) in the test on HOP-62; 5.08 µM (inactive) with HOP-92; 3.12 µM (inactive) with K562; 3.85 µM (inactive) with LOX IMVI. For the same compound, the GI50 was 3.3 µM (inactive) with M14; 2.72 µM (inactive) with MOLT-4; 2.81 µM (inactive) in the test on Malme-3M; 3.66 µM (inactive) in the test on NCI-H460; 4.68 µM (inactive) in the test on OVCAR-3; 3.95 µM (inactive) in the test with OVCAR-5. Moreover, the GI50 with RPMI-8226 is 3.51 µM (inactive); in the test on RXF 393, 5.94 µM (inactive); with SK-MEL-2 it was 8.02 µM (inactive); in the test on SK-OV-3, 4.31 µM (inactive); in the test on SN12C, 7.64 µM (inactive); in the test with SNB-19, 3.85 µM (inactive). Moreover, the GI50 in the test on SNB-75 was 2.34 µM (inactive); in the test with U-251, 5.58 µM (inactive).

Regarding `CC(C)(CN1CCCCC1)C(=O)/C=C/c1ccc(Cl)c(Cl)c1`, the GI50 with HCT-116 was 1.65 µM (inactive); in the test with HCT-15 it was 1.41 µM; in the test on HOP-62, 1.95 µM (inactive); in the test on HOP-92, 1.03 µM (active); in the test on K562, 1.59 µM (inactive); with LOX IMVI, 1.37 µM (inactive). The GI50 is 1.7 µM (inactive) with M14; 1.63 µM (inactive) with MOLT-4; 1.83 µM (inactive) in the test on Malme-3M; 1.65 µM (inactive) in the test with NCI-H460; 1.59 µM (inactive) in the test on OVCAR-3; 1.71 µM (inactive) in the test on OVCAR-5. The GI50 was 2.52 µM (inactive) with RPMI-8226; 1.17 µM (inactive) with RXF 393; 1.73 µM (inactive) in the test on SK-MEL-2; 2.34 µM (inactive) in the test with SK-OV-3; 1.56 µM (inactive) with SN12C; 3.15 µM (inactive) in the test with SNB-19. In addition, the GI50 in the test with SNB-75 is 1.48 µM (inactive); with U-251, 1.37 µM (inactive).

On to `Nc1ncnc2c1ncn2C(=O)NC12CC3CC(CC(C3)C1)C2`, for which the GI50 in the test on HCT-116 is > 100 µM (inactive); in the test on HCT-15, greater than 100 µM; in the test on HOP-62, > 100 µM (inactive); in the test with HOP-92, > 100 µM (inactive); in the test with K562, > 100 µM (inactive); in the test on LOX IMVI it was > 100 µM (inactive). Moreover, the GI50 in the test with M14, in the test with MOLT-4, with Malme-3M, with NCI-H460, with OVCAR-3 and with OVCAR-5 was > 100 µM (inactive) each time. Moreover, the GI50 with RPMI-8226, with RXF 393, in the test on SK-MEL-2, with SK-OV-3, with SN12C and in the test on SNB-19 was > 100 µM (inactive) throughout. Further, the GI50 is 84.7 µM (inactive) with SNB-75 and > 100 µM (inactive) with U-251.
